Calls of active or inactive are those of the source. How the calls were made is not given here.
System: rodent carcinogenicity bioassays, tumor incidence
Test: CCRIS carcinogenicity studies
Procedure, shortened: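 Archive of carcinogenicity, mutagenicity, tumor promotion and tumor inhibition results drawn from journals, NCI reports and other sources, expert-reviewed; covers 1985-2011 and is no longer updated.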

For `CCCCCN(C)N=O`, the carcinogen call (Species: HAMSTER, Strain/Sex: SYRIAN/FEMALE, Route: GAVAGE, Dose: 0, 5.6 MG/KG 1/WK FOR 23-30 WK (TOTAL DOSE: 0; 1.1 MMOL) (STUDY DURATION: LIFETIME), Dose: 0, 5.6 MG/KG 1/WK FOR 23-30 WK (TOTAL DOSE: 0; 1.1 MMOL) (STUDY DURATION: LIFETIME), Tumor Site: Type of Lesion: LUNG: ALVEOLAR/BRONCHIAL ADENOMA, NASAL MUCOSA: CARCINOMA, ADENOMA, FORESTOMACH: SQUAMOUS CELL CARCINOMA, SQUAMOUS CELL, Tumor Site: Type of Lesion: LUNG: ALVEOLAR/BRONCHIAL ADENOMA, NASAL MUCOSA: CARCINOMA, ADENOMA, FORESTOMACH: SQUAMOUS CELL CARCINOMA, SQUAMOUS CELL) was “active; positive”, the carcinogen call (Species: HAMSTER, Strain/Sex: SYRIAN/MALE,FEMALE, Route: INTRAPERITONEAL, Dose: 0, 3, 6 MG/KG ONCE ON DAYS 1 AND 3 OF AGE, RESPECTIVELY (STUDY DURATION: >75 WK), Dose: 0, 3, 6 MG/KG ONCE ON DAYS 1 AND 3 OF AGE, RESPECTIVELY (STUDY DURATION: >75 WK)) was “inactive; negative” and the carcinogen call (Species: HAMSTER, Strain/Sex: SYRIAN/MALE,FEMALE, Route: INTRAPERITONEAL, Dose: 0, 3 MG/KG ONCE TO NEWBORN ANIMALS (STUDY DURATION: LIFETIME)) was “inactive; negative”. For the same molecule, the carcinogen call (Species: HAMSTER, Strain/Sex: SYRIAN/MALE,FEMALE, Route: INTRAPERITONEAL, Dose: 0, 6 MG/KG ONCE TO 3 D-OLD ANIMALS (STUDY DURATION: LIFETIME)) was “inactive; negative”, the carcinogen call (Species: HAMSTER, Strain/Sex: SYRIAN/MALE,FEMALE, Route: INTRAPERITONEAL, Dose: 0, 70-100 MG/KG ONCE TO ADULT ANIMALS (STUDY DURATION: LIFETIME), Tumor Site: Type of Lesion: ESOPHAGUS: PAPILLOMA OR CARCINOMA) was “active; positive” and the carcinogen call (Species: HAMSTER, Strain/Sex: SYRIAN/MALE,FEMALE, Route: INTRAPERITONEAL, Dose: 0, 70 MG/KG (3 MALE HAMSTERS), 100 MG/KG (11 FEMALE HAMSTERS) ONCE AT 46-49 DAYS OF AGE (STUDY DURATION: >43 WK), Dose: 0, 70 MG/KG (3 MALE HAMSTERS), 100 MG/KG (11 FEMALE HAMSTERS) ONCE AT 46-49 DAYS OF AGE (STUDY DURATION: >43 WK)) was “inactive; negative”. The carcinogen call (Species: HAMSTER, Strain/Sex: SYRIAN/MALE,FEMALE, Route: INTRAPERITONEAL, Dose: 0, 75 MG/KG 1/WK FOR 6 WK BEGINNING AT 38 DAYS OF AGE (STUDY DURATION: >33 WK), Tumor Site: Type of Lesion: FORESTOMACH: PAPILLOMA, LUNG: ADENOMA, NASAL CAVITY: TUMOR, Tumor Site: Type of Lesion: FORESTOMACH: PAPILLOMA, LUNG: ADENOMA, NASAL CAVITY: TUMOR) was “active; positive”, the carcinogen call (Species: HAMSTER, Strain/Sex: SYRIAN/MALE,FEMALE, Route: INTRAPERITONEAL, Dose: 0, 75 MG/KG 1/WK FOR 6 WK TO ADULT ANIMALS (STUDY DURATION: LIFETIME), Tumor Site: Type of Lesion: ESOPHAGUS: PAPILLOMA, FORESTOMACH: PAPILLOMA, LUNG: ADENOMA, NASAL CAVITY: ADENOMA, ADENOCARCINOMA OR SQUAMOUS CARCINOMA, Tumor Site: Type of Lesion: ESOPHAGUS: PAPILLOMA, FORESTOMACH: PAPILLOMA, LUNG: ADENOMA, NASAL CAVITY: ADENOMA, ADENOCARCINOMA OR SQUAMOUS CARCINOMA) was “active; positive” and the carcinogen call (Species: HAMSTER, Strain/Sex: SYRIAN/MALE, Route: GAVAGE, Dose: 0, 5.6 MG/KG 1/WK FOR 23-30 WK (TOTAL DOSE: 0; 1.1 MMOL) (STUDY DURATION: LIFETIME), Dose: 0, 5.6 MG/KG 1/WK FOR 23-30 WK (TOTAL DOSE: 0; 1.1 MMOL) (STUDY DURATION: LIFETIME), Tumor Site: Type of Lesion: LIVER: HEPATOCELLULAR ADENOMA, HEMANGIOSARCOMA, LUNG: ALVEOLAR/BRONCHIAL ADENOMA, NASAL MUCOSA: CARCINOMA, FORESTOMACH:, Tumor Site: Type of Lesion: LIVER: HEPATOCELLULAR ADENOMA, HEMANGIOSARCOMA, LUNG: ALVEOLAR/BRONCHIAL ADENOMA, NASAL MUCOSA: CARCINOMA, FORESTOMACH:) was “active; positive”. For the same molecule, the carcinogen call (Species: MOUSE, Strain/Sex: 101/N/MALE, FEMALE, Route: ORAL, Dose: 0, 0.0015% IN DRINKING WATER FOR 8 WK (STUDY DURATION: 24 WK), Tumor Site: Type of Lesion: ESOPHAGUS: TUMOR) was “active; positive”, the carcinogen call (Species: MOUSE, Strain/Sex: BXH-8/MALE, FEMALE, Route: ORAL, Dose: 0, 0.0015% IN DRINKING WATER FOR 8 WK (STUDY DURATION: 24 WK), Tumor Site: Type of Lesion: ESOPHAGUS: TUMOR) was “active; positive” and the carcinogen call (Species: MOUSE, Strain/Sex: C57BL/MALE,FEMALE, Route: ORAL, Dose: 0, 0.0015% IN DRINKING WATER FOR 8 WK (STUDY DURATION: 24 WK), Tumor Site: Type of Lesion: ESOPHAGUS:TUMOR) was “active; positive”. The carcinogen call (Species: MOUSE, Strain/Sex: STX/LE/MALE,FEMALE, Route: ORAL, Dose: 0, 0.0015% IN DRINKING WATER FOR 8 WK (STUDY DURATION: 24 WK), Tumor Site: Type of Lesion: ESOPHAGUS: TUMOR) was “active; positive”, the carcinogen call (Species: MOUSE, Strain/Sex: SWISS/MALE,FEMALE, Route: INTRAPERITONEAL, Dose: 0, 15 MG/KG 1/WK FOR 3 WK BEGINNING AT 38 DAYS OF AGE (STUDY DURATION: >79 WK), Tumor Site: Type of Lesion: ESOPHAGUS: PAPILLOMA, LUNG: ADENOMA) was “active; positive” and the carcinogen call (Species: MOUSE, Strain/Sex: SWISS/MALE,FEMALE, Route: INTRAPERITONEAL, Dose: 0, 15 MG/KG 1/WK FOR 3 WK TO ADULT ANIMALS (STUDY DURATION: LIFETIME), Tumor Site: Type of Lesion: ESOPHAGUS: PAPILLOMA, LUNG: ADENOMA) was “active; positive”. The carcinogen call (Species: RAT, Strain/Sex: WISTAR/MALE,FEMALE, Route: INTRAPERITONEAL, Dose: 0, 6, 12.5 MG/KG ONCE AT 1 AND 3 DAYS OF AGE, RESPECTIVELY (STUDY DURATION: >82 WK), Dose: 0, 6, 12.5 MG/KG ONCE AT 1 AND 3 DAYS OF AGE, RESPECTIVELY (STUDY DURATION: >82 WK)) was “inactive; negative”, the carcinogen call (Species: RAT, Strain/Sex: WISTAR/MALE,FEMALE, Route: INTRAPERITONEAL, Dose: 0, 6 MG/KG ONCE TO NEWBORN ANIMALS (STUDY DURATION: LIFETIME)) was “inactive; negative” and the carcinogen call (Species: RAT, Strain/Sex: WISTAR/MALE,FEMALE, Route: INTRAPERITONEAL, Dose: 0, 12.5 MG/KG ONCE TO 3 D-OLD ANIMALS (STUDY DURATION: LIFETIME)) was “inactive; negative”. For the same molecule, the carcinogen call (Species: RAT, Strain/Sex: WISTAR/MALE,FEMALE, Route: INTRAPERITONEAL, Dose: 0, 50-70 MG/KG ONCE TO ADULT ANIMALS (STUDY DURATION: LIFETIME), Tumor Site: Type of Lesion: ESOPHAGUS: PAPILLOMA, CARCINOMA) was “active; positive” and the carcinogen call (Species: RAT, Strain/Sex: WISTAR/MALE,FEMALE, Route: INTRAPERITONEAL, Dose: 0, 50 MG/KG (7 FEMALE RATS), 60 MG/KG (2 FEMALE RATS), 70 MG/KG (10 MALE RATS) ONCE AT 42-50 DAYS OF AGE (STUDY DURATION, Dose: 0, 50 MG/KG (7 FEMALE RATS), 60 MG/KG (2 FEMALE RATS), 70 MG/KG (10 MALE RATS) ONCE AT 42-50 DAYS OF AGE (STUDY DURATION, Tumor Site: Type of Lesion: ESOPHAGUS: CARCINOMA) was “active; positive”.

For `C=CCN(N)CC=C`, the carcinogen call (Species: MOUSE, Strain/Sex: SWISS/FEMALE, Route: ORAL, Dose: 0.03125% IN DRINKING WATER FOR LIFE, Tumor Site: Type of Lesion: LUNG: ADENOMA, ADENOCARCINOMA) was “active; positive” and the carcinogen call (Species: MOUSE, Strain/Sex: SWISS/MALE, Route: ORAL, Dose: 0.03125% IN DRINKING WATER FOR LIFE, Tumor Site: Type of Lesion: LUNG: ADENOMA, ADENOCARCINOMA, FORESTOMACH: SQUAMOUS CELL PAPILLOMA, CARCINOMA) was “active; positive”.

For `CC1CN1` (centres undefined), the carcinogen call (Species: RAT, Strain/Sex: STRAIN-CD/FEMALE, Route: GAVAGE, Dose: 10.5, 20.7 MG/KG (AVE DOSE) IN WATER 2/WK FOR 58 WK (LOW DOSE) OR 27 WK (HIGH DOSE), Tumor Site: Type of Lesion: INTESTINES: ADENOCARCINOMA, BRAIN (CEREBRUM): GLIOMA, EAR (DUCT): SQUAMOUS CELL CARCINOMA, MAMMARY GLAND: ADENOCARCINOMA, Tumor Site: Type of Lesion: INTESTINES: ADENOCARCINOMA, BRAIN (CEREBRUM): GLIOMA, EAR (DUCT): SQUAMOUS CELL CARCINOMA, MAMMARY GLAND: ADENOCARCINOMA) was “active; positive” and the carcinogen call (Species: RAT, Strain/Sex: STRAIN-CD/MALE, Route: GAVAGE, Dose: 10.5, 20.7 MG/KG (AVE DOSE) IN WATER 2/WK FOR 58 WK (LOW DOSE) OR 27 WK (HIGH DOSE), Tumor Site: Type of Lesion: HEMATOPOIETIC SYSTEM (LEUKEMIA): GRANULOCYTIC LEUKEMIA, BRAIN (CEREBRUM): GLIOMA, EAR (DUCT): SQUAMOUS CELL CARCINOMA, I, Tumor Site: Type of Lesion: HEMATOPOIETIC SYSTEM (LEUKEMIA): GRANULOCYTIC LEUKEMIA, BRAIN (CEREBRUM): GLIOMA, EAR (DUCT): SQUAMOUS CELL CARCINOMA, I) was “active; positive”.
